Source: patent US6331546A, “Use of 2-amino-3,4-dihydroquinazolines for the production of a medicament for the treatment or prophylaxis of illnesses caused by ischemic conditions” (Aventis Pharma Deutschland GmbH, priority 1999, dated 2001)
Structures can show the parent of a compound that is named as a salt.

Target: T1, Na+/H+ exchanger of rabbit erythrocytes (Oryctolagus cuniculus, UniProt P23791)
T1 construct: endogenous in cells; host or cells: erythrocytes in fresh heparinised blood of White New Zealand rabbits (Ivanovas)
Test: Inhibition of the Na+/H+ exchanger of rabbit erythrocytes (amiloride-sensitive sodium influx, flame photometry)
Type: cell-based
Conditions: hyperosmolar salt/sucrose medium, pH 7.4, 37° C.
Source text: Inhibition of the Na^+ /H^+ Exchanger of Rabbit Erythrocytes White New Zealand rabbits (Ivanovas) received a standard diet with 2% cholesterol for six weeks in order to activate the Na^+ /H^+ exchange and thus to be able to determine the Na^+ influx into the erythrocytes via Na^+ /H^+ exchange by flame photometry. The blood was removed from the auricular arteries and rendered uncoagulable by means of 25 IU of potassium heparin. A part of each sample was used for the duplicate determination of the hematocrit by centrifugation. Aliquots of 100 μl in each case served for the measurement of the Na^+ starting content of the erythrocytes. In order to determine the amiloride-sensitive sodium influx, 100 μl of each blood sample in 5 ml in each case of a hyperosmolar salt/sucrose medium (mmol/I: 140 NaCl, 3 KCl, 150 sucrose, 0.1 ouabain, 20 tris-hydroxymethyl-aminomethane) were incubated at pH 7.4 and 37° C. The erythrocytes were then washed three times with ice-cold MgCl^2 /ouabain solution (mmol/I: 112 MgCl2, 0.1 ouabain) and hemolyzed in 2.0 ml of distilled water. The intracellular sodium content was determined by flame photometry. The Na^+ net influx was calculated from the difference between sodium starting values and the sodium content of the erythrocytes after incubation. The amiloride-inhibitable sodium influx followed from the difference in the sodium content of the erythrocytes after incubation with and without amiloride 3×10^-4 mol/I. The procedure was the same in the case of the compounds according to the invention.

T1 sequence (P23791 whole entry): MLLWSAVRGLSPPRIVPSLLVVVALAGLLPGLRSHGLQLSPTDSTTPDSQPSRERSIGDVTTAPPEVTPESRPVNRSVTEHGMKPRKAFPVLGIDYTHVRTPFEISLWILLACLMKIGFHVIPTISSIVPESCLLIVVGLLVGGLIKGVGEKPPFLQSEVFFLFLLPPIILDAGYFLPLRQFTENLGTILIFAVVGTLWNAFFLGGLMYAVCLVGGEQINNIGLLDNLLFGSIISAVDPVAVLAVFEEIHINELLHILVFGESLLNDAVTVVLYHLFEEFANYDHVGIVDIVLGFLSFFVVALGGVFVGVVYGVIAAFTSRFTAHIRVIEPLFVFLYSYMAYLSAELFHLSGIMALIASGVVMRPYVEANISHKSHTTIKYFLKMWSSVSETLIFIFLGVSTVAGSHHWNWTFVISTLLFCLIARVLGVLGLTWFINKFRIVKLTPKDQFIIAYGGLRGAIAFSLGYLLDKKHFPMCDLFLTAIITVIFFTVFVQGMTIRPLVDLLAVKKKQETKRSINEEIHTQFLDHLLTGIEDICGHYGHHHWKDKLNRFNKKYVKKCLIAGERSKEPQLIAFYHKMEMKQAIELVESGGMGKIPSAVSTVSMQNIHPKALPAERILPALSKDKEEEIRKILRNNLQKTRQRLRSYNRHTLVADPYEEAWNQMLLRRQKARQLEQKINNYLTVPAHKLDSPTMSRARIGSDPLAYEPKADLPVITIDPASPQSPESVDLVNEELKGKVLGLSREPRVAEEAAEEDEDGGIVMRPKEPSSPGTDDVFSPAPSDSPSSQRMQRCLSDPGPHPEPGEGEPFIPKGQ

For `COc1ccc(C2NC(N)=Nc3ccccc32)cc1` (stereo not drawn) [Example 1, 2-Amino-4-(4-methoxyphenyl)-3,4-dihydroquinazoline Hydrochloride], the IC50 was 3.4 µM.

With `COc1ccc(C2NC(N)=Nc3ccccc32)cc1OC` (stereo not drawn) [Example 2, 2-Amino-4-(3,4-dimethoxyphenyl)-3,4-dihydroquinazolinium Fumarate] the IC50 was 3.2 µM.

In the case of `COc1ccc(C2c3ccccc3N=C(N)N2C)cc1OC` (stereo not drawn) [Example 3, 2-Amino4-(3,4-dimethoxyphenyl)-3-methyl-3,4-dihydro-quinazolinium Fumarate], the IC50 is reported as 4.1 µM.
